Assay results as given in patent US20100120039A1, “METHODS AND COMPOSITIONS IN BREAST CANCER THERAPY RESISTANCE” (priority 2008, published 2010).
“And” between values parts separate entries of the source, which are not always exact repeats. Identical values can stand only once. “Also recorded” adds a separate entry of the source.

What was measured:
[1] = test system: MCF-7 K303R ERα-overexpressing cells; experiment: Anchorage-independent soft agar growth assay; format: cell-based, human; conditions: for reduction in colonies: Tam 100 nM
[2] = test system: K303R Arom 1 and Arom 2 cells; experiment: Anchorage-independent soft agar growth assay; format: cell-based, human; conditions: for AD-induced colony formation: AD 10 nmol/L + Ana 1 μmol/L, 14 days; for colony growth: ICI 182,780 1 μM
MCF-7 Arom 1 cells [3] = experiment: Anchorage-independent soft agar growth assay; format: cell-based, human; conditions: for colony growth: ICI 182,780 1 μM
[4] = test system: pAkt in K303R Arom 1 and 2 cells; experiment: Immunoblot of phosphorylated Akt; format: cell-based, human; conditions: for basal Akt phosphorylation: LY 10 μmol/L, PI-103 1 μmol/L, Akti1/2 1 μmol/L, 30 min
K303R Arom 1 cells [5] = experiment: MTT growth assay; format: cell-based, human; conditions: AD 10 nM + Ana, 9 days, K303R mutant cells
MCF-7 Arom 1 cells [6] = experiment: MTT growth assay; format: cell-based, human; conditions: AD 10 nM + Ana, 9 days, WT ERα cells
aromatase = target: T1, aromatase (Homo sapiens, UniProt P11511); experiment: Aromatase activity assay (3H-water release); format: biochemical; conditions: both cells (MCF-7 and MCF-7-K303R aromatase transfectants)
T1 construct: Full-length human aromatase cDNA was amplified from the pCMV6-Arom plasmid; expressed in transfected cells; host or cells: MCF-7 parental and YFP-K303R ERα MCF-7 clones, stably transfected with pZeo-Arom
T1 sequence (P11511 1-503): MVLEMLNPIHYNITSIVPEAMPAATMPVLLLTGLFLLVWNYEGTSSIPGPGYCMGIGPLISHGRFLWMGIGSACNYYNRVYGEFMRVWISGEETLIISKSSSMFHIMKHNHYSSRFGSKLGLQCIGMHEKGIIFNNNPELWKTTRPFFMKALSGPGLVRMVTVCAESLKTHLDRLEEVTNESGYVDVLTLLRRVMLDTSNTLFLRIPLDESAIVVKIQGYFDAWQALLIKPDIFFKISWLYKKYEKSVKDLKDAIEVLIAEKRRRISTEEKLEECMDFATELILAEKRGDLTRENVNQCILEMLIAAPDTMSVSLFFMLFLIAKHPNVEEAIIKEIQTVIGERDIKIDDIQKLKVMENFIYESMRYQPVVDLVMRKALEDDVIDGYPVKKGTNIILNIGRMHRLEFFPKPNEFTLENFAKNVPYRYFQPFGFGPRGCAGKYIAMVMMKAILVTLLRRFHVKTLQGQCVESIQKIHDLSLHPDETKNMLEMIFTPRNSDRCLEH

[7] = test system: PARP cleavage in MCF-7 Arom 1 cells; experiment: Immunoblot of PARP proteolysis; format: cell-based, human; conditions: AD 10 nmol/L + Ana 1 μmol/L, 24 h
[8] = test system: PARP cleavage in K303R Arom 1 cells; experiment: Immunoblot of PARP proteolysis; format: cell-based, human; conditions: AD 10 nmol/L + Ana 1 μmol/L, 24 h
K303R Arom 1 cells [9] = experiment: ELISA cell death detection assay; format: cell-based, human
MCF-7 Arom 1 cells [10] = experiment: ELISA cell death detection assay; format: cell-based, human
[11] = test system: K303R ERα-Arom pools (MCF-7); experiment: Soft agar assay in stable pools; format: cell-based, human; conditions: AD 10 nmol/L + Ana 1 μmol/L
[12] = test system: pAkt in MCF-7 Arom 1 cells; experiment: Immunoblot of phosphorylated Akt; format: cell-based, human
CHO K303R P cells = experiment: Soft agar assay in stable pools; format: cell-based, Chinese hamster; conditions: AD 10 nmol/L + Ana 1 μmol/L
[13] = test system: K303R ERα ERE-luciferase reporter; experiment: ERα transactivation assay (ERE-luciferase) in CHO cells; format: cell-based, Chinese hamster; conditions: LY 10 μmol/L or ICI 1 μmol/L
MCF-7 WT cells = experiment: Anchorage-independent soft agar growth assay; format: cell-based, human; conditions: Tam 100 nM, 14 days
[14] = test system: AP-1 activity in MCF-7 K303R cells; experiment: AP-1 luciferase reporter assay; format: cell-based, human
[15] = test system: MCF-7 WT ERα-expressing cells; experiment: MTT growth assay with growth factors; format: cell-based, human; conditions: Tam alone
[16] = test system: MCF-7 K303R ERα-expressing cells; experiment: MTT growth assay with growth factors; format: cell-based, human
[17] = test system: phosphorylated HER2, Akt, MAPK in MCF-7 WT cells; experiment: Immunoblot after S305 blocking peptide delivery and heregulin; format: cell-based, human; conditions: peptide 4 μg/well 4 h, heregulin 10 min
[18] = test system: phosphorylated S305 ERα, HER2, Akt, MAPK in MCF-7 K303R cells; experiment: as above; format: cell-based, human; conditions: peptide 4 μg/well 4 h, heregulin 10 min
[19] = AD 10 nmol/L + Ana 1 μmol/L versus AD

For 17β-Estradiol [E2], the “soft agar growth at lowest E2 concentration” value ([1]; E2 10^−12, 14 days, p=0.005) was “significantly enhance”.

In the case of O=c1[nH]c2ccccc2n1C1CCN(Cc2ccc(-c3nc4cc5nc[nH]c5cc4nc3-c3ccccc3)cc2)CC1 [Akti1/2, Akt inhibitor VIII isozyme-selective], the inhibition of growth ([2]; Akti1/2 1 μmol/L) is reported as greater than 90%, the “inhibition of basal, AD-stimulated and Ana-stimulated growth” value (MCF-7 Arom 1 cells [3]; Akti1/2 1 μmol/L) is reported as roughly 30% and the “basal Akt phosphorylation” value [4] is reported as “effectively blocked”.

For CC(C)(C#N)c1cc(Cn2cncn2)cc(C(C)(C)C#N)c1 [Ana, anastrozole], the “effect on AD-stimulated growth” value (K303R Arom 1 cells [5]) was “had no effect”, the “decrease of AD-stimulated growth” value (MCF-7 Arom 1 cells [6]) was 47% and ~40% and the “decrease of AD-stimulated growth” value (MCF-7 Arom 1 cells [6]; listed as AN) was 40%. For the same compound, the “reduction of aromatase activity” value (aromatase) was 95%, the AD-induced colony formation [2] was “did not inhibit; also recorded: unable to inhibit” and the AD-induced colony formation ([2]; listed as AN) was “unable to inhibit”. For the same compound, the AD-stimulated colony growth (MCF-7 Arom 1 cells [3]; AD 10 nmol/L + Ana 1 μmol/L, 14 days) was “completely abrogated”, the “PARP proteolysis compared with AD treatment” value [7] was “increased proteolysis” and the PARP cleavage [8] was “unchanged”. For the same compound, the apoptotic response (K303R Arom 1 cells [9]; [19]) was “no change”, the cell apoptosis (MCF-7 Arom 1 cells [10]; [19]) was “significant increase” and the AD-stimulated growth [11] was “unable to reduce; also recorded: further stimulated”. For the same compound, the “constitutive pAkt levels” value ([4]; AD 10 nM + Ana 1 μM, 1 h) was “not affected; also recorded: unaffected”, the “AD-induced pAkt levels” value ([12]; AD 10 nM + Ana 1 μM, 1 h) was “reduced” and the AD-stimulated growth (CHO K303R P cells) was “did not reverse”.

C[C@]12CC[C@@H]3c4ccc(O)cc4C[C@@H](CCCCCCCCC[S+]([O-])CCCC(F)(F)C(F)(F)F)[C@H]3[C@@H]1CC[C@@H]2O (stereo partly shown) [ICI 182,780, fulvestrant] was tested, and the colony growth [2] was “significantly suppressed”, the colony growth ([2]; listed as ICI182,780) was “suppressed” and the colony growth (MCF-7 Arom 1 cells [3]) was “significantly suppressed”. For the same compound, the colony growth (MCF-7 Arom 1 cells [3]; listed as ICI182,780) was “suppressed”, the ERE activity [13] was “inhibited” and the “pAkt with short-term treatment” value ([4]; ICI 1 μmol/L, 1-30 min) was “no changes”. For the same compound, the pAkt levels ([4]; ICI 1-48 h) was “decrease” and the “basal pAkt” value ([12]; ICI182,780 1-48 h) was “not basal pAkt”.

In the case of O=c1cc(N2CCOCC2)oc2c(-c3ccccc3)cccc12 [LY294002], the “increase in the apoptotic rate compared with AD” value (K303R Arom 1 cells [9]; LY 10 μmol/L, 72 h) is reported as 3.6 fold and the apoptosis induction (MCF-7 Arom 1 cells [10]; LY 10 μmol/L, 72 h) is reported as 1.7 fold.

In the case of COc1cccc(-c2cc(=O)c3ccccc3o2)c1N [PD98059], the “antiproliferative effects on basal growth” value ([2]; PD98059 10 μM) is reported as “not observed”, the “reversal of the AI^R phenotype” value ([2]; PD98059 10 μM) is reported as “did not reverse” and the “reversal of the AI^R phenotype” value ([2]; PD98059 10 μM, listed as PD) is reported as “unable to reverse”.

In the case of Oc1cccc(-c2nc(N3CCOCC3)c3oc4ncccc4c3n2)c1 [PI-103], the “basal Akt phosphorylation” value [4] is reported as “effectively blocked”.

For CC/C(=C(\c1ccccc1)c1ccc(OCCN(C)C)cc1)c1ccccc1 [Tam, tamoxifen], the reduction in colonies (MCF-7 WT cells; estrogen (E2 1 nM)-stimulated) was 78%, the reduction in colonies (MCF-7 WT cells; heregulin (2 ng/ml)-stimulated) was 96% and the “growth factor-induced AP-1 activity” value ([14]; presence of Tam) was “unable to reverse”. The control growth [15] was “inhibited”, the growth ([16]; Tam alone, MTT) was “enhanced” and the “growth when stimulated with growth factors” value ([16]; Tam with heregulin, EGF or IGF-1, MTT) was “super-agonist”. The heregulin-induced anchorage-independent growth ([1]; Tam, 14 days) was “unable to block; also recorded: failed to inhibit”, the reduction in colonies ([1]; estrogen (E2 1 nM)-stimulated, 14 days) was 54% and the reduction in colonies ([1]; heregulin (2 ng/ml)-stimulated, 14 days) was 21%.

In the case of “IKRSKKNSLALSC (blocking sequence) [S305 blocking peptide]”, the “heregulin-induced phosphorylation of downstream signaling molecules (HER2, Akt, MAPK)” value [17] is reported as “abrogated; also recorded: inhibited”, the “phosphorylation of the mutant receptor at S305” value [18] is reported as “abrogated” and the “heregulin-induced phosphorylation of downstream signaling molecules (HER2, Akt, MAPK)” value ([18]; more pronounced than in WT) is reported as “abrogated; also recorded: inhibited”.

For heregulin, the AP-1 activity ([14]; only in mutant-expressing cells) was “induced high AP-1 activity”.
